Entries after “also recorded” stand apart in the source; their conditions may differ.
Experiments:
[1] = system: neutrophil infiltration of pancreatic tissue; test: Neutrophil infiltration assay of pancreatic tissue; type: in vivo; conditions: rat
Experimental: Neutrophil infiltration of pancreatic tissue was examined using methods known in the art. See Gukovskaya A S, et al. (1997); Gukovskaya A S, et al. (2002); Pandol S J, et al. (1999); Sandoval D, et al. (1996); and Vaquero E, et al. (2001). The pancreas was cut into about 2 to about 3 mm pieces and fixed in 4% paraformaldehyde for 2 hours. The tissue was then frozen in liquid nitrogen. 8-μm-thick serial cryostat sections of pancreatic tissue from control samples and test samples from Examples 1 and 2 were cut and mounted on glass slides. The slides were placed in phosphate buffered saline (PBS) for 5 minutes. This was repeated twice. Then the slides were transferred into blocking buffer (PBS containing 5% (wt/vol) goat serum, 0.5% bovine serum albumin (wt/vol) and 0.1% gelatin(wt/vol) for 1 hour at room temperature. Then the slides incubated with FITC-conjugated rabbit anti-rat neutrophil antibody (Accurate, Westbury, N.Y.) (diluted 1:120 in the blocking buffer) for 3 hours at room temperature. The slides were the transferred into the blocking buffer, incubated for 5 minutes, and repeated 4 times. Finally, coverslips were mounted over the tissue samples on the slide with the addition of anti-fading medium. The number of infiltrating neutrophils was obtained by counting the neutrophils at 40× magnification in an average of 50 fields covering at least about 1,000 acinar cells. For each sample, neutrophil numbers were expressed as a percentage of acinar cells.

AP-1 [2] = test: CCK-induced AP-1 activation in isolated pancreatic acinar cells (EMSA); type: cell-based, rat
Experimental: To confirm that the effects of curcumin occur in the pancreatic acinar cell, the effects of curcumin on the activation of NF-κB and AP-1 in vitro in CCK-stimulated pancreatic acini. Pancreatic acini were prepared from rat pancreas using the collagenase digestion method as described by Pandol S J, et al. (1982) J. Biol. Chem. 257:12024–12029, which is herein incorporated by reference, and then incubated at 37° C. in 199 medium (GIBCO, Rockville, Md.) known in the art. […] EMSAs for NF-κB and AP-1 were performed on nuclear proteins extracted from each sample as provided above. Nuclear protein extracts were prepared by methods known in the art. […] Briefly, samples of pancreatic tissue or isolated acini were rinsed in ice-cold PBS and homogenized in hypotonic Buffer A (20 mM β-glycerophosphate, 10 mM HEPES, pH 7.6, 1.5 mM MgCl2, 10 mM KCl, 10 mM Na2MoO4, 0.1 mM Na3VO4, 1 mM dithiothreitol (DTT), 1 mM phenylmethylsulfonyl fluoride (PMSF), 5 μg/ml each of protease inhibitors pepstatin, leupeptin, chymostatin, antipain and aprotinin). After incubating on ice for about 20 to about 25 minutes, the nonionic detergent Igepal CA-630 (Sigma, St. Louis, Mo.) was added to a final concentration of 0.3 to 0.4% (v/v), followed by an additional incubation on ice for about 1 to about 2 minutes. The crude nuclear pellet was collected by microcentrifugation for 30 seconds. The supernatant (cytosolic protein) was removed, and the nuclear pellet was resuspended in the high-salt buffer C (25% glycerol, 20 mM β-glycerophosphate, 10 mM HEPES, 1.5 mM MgCl2, 420 mM NaCl, 0.2 mM EDTA, 10 mM Na2MoO4, 0.1 mM Na3VO4, 1 mM DTT, 1 mM PMSF, 5 μg/ml each of protease inhibitors pepstatin, leupeptin, chymostatin, antipain and aprotinin. After rotating at 4° C. for up to 1 hour, nuclear membranes were pelleted by microcentrifugation for 10 minutes, and the clear supernatant (nuclear extract) was aliquoted and stored at −80° C. Protein concentration in the nuclear extract was determined by the Bio-Rad protein assay (Bio-Rad Laboratories, Hercules, Calif.).

AP-1 [3] = test: EMSA for AP-1 on nuclear extracts from pancreatic tissue; type: in vivo; conditions: rat
Experimental: Specifically, aliquots of nuclear extracts with equal amounts of protein (about 2 to about 10 mg) were mixed in 20 μl reactions with a buffer containing 10 mM HEPES (pH 7.8), 50 mM KCl, 0.1 mM EDTA, 1 mM DTT, 10% (vol/vol) glycerol, and 3 μg of poly(dI-dC). Binding reactions were started by the addition of c. 60,000 cpm of ^32P-labeled DNA probe and allowed to proceed for about 20 to about 25 minutes at room temperature. The oligonucleotide probe for NF-κB:
5′-[sequence] (SEQ ID NO: 2), containing phorbol ester responsive element (TRE, underlined), were annealed with their complementary strands and end-labeled using Klenow DNA polymerase I (Stratagene, La Jolla, Calif.).
The samples were electrophoresed at room temperature in 0.5×TBE buffer (1× TBE: 89 mM Tris base, 89 mM boric acid, 2 mM EDTA) on a non-denaturing 4.5% polyacrylamide gel at 200 V. The gels were dried and directly analyzed in the PhosphorImager (Molecular Dynamics, Sunnyvale, Calif.).
Nuclear protein extracts were prepared by methods known in the art. […] Briefly, samples of pancreatic tissue or isolated acini were rinsed in ice-cold PBS and homogenized in hypotonic Buffer A (20 mM β-glycerophosphate, 10 mM HEPES, pH 7.6, 1.5 mM MgCl2, 10 mM KCl, 10 mM Na2MoO4, 0.1 mM Na3VO4, 1 mM dithiothreitol (DTT), 1 mM phenylmethylsulfonyl fluoride (PMSF), 5 μg/ml each of protease inhibitors pepstatin, leupeptin, chymostatin, antipain and aprotinin). After incubating on ice for about 20 to about 25 minutes, the nonionic detergent Igepal CA-630 (Sigma, St. Louis, Mo.) was added to a final concentration of 0.3 to 0.4% (v/v), followed by an additional incubation on ice for about 1 to about 2 minutes. The crude nuclear pellet was collected by microcentrifugation for 30 seconds. The supernatant (cytosolic protein) was removed, and the nuclear pellet was resuspended in the high-salt buffer C (25% glycerol, 20 mM β-glycerophosphate, 10 mM HEPES, 1.5 mM MgCl2, 420 mM NaCl, 0.2 mM EDTA, 10 mM Na2MoO4, 0.1 mM Na3VO4, 1 mM DTT, 1 mM PMSF, 5 μg/ml each of protease inhibitors pepstatin, leupeptin, chymostatin, antipain and aprotinin. After rotating at 4° C. for up to 1 hour, nuclear membranes were pelleted by microcentrifugation for 10 minutes, and the clear supernatant (nuclear extract) was aliquoted and stored at −80° C. Protein concentration in the nuclear extract was determined by the Bio-Rad protein assay (Bio-Rad Laboratories, Hercules, Calif.).

p38 MAP kinase = p38 MAP kinase (Homo sapiens, UniProt Q16539); conditions: various cell types and tissues; cited from earlier work
Sequence of p38 MAP kinase (Q16539 whole entry): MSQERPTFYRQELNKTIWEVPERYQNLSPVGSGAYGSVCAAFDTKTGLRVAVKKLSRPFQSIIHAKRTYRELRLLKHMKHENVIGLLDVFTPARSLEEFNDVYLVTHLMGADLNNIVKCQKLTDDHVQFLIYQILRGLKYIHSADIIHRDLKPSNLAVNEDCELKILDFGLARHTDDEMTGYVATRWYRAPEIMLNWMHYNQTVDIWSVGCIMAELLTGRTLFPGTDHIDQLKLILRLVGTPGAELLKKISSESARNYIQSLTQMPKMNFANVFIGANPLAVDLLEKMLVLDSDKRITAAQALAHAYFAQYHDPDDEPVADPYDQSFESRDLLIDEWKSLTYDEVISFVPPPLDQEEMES

[4] = system: IL-6, TNF-α, KC and iNOS mRNA; test: RT-PCR for pancreatic mRNA expression of inflammatory molecules; type: in vivo; conditions: rat
Experimental: To determine whether the effects of curcumin on NF-κB and AP-1 activation translated into changes in the expression of inflammatory molecules, the effect of curcumin on pancreatic mRNA expression of several cytokines and other inflammatory molecules were measured by methods known in the art. See Blinman T A, et al. (2000); Gukovskaya A S, et al. (1999); Gukovsky I, et al. (1998); Pandol S J, et al. (1999); Vaquero E, et al. (2001); and Zaninovic V, et al. (2000). Briefly, total RNA was obtained from pancreatic tissue with TRI reagent (Molecular Research Center, Cincinnati, Ohio) and its quality was verified by ethidium bromide staining of rRNA bands on a denaturing agarose gel. RNA was reverse-transcribed with the SuperScript II preamplification kit (GIBCO-BRL, Rockville, Md.) and subjected to PCR with the rat gene specific, intron-spanning primers set forth in Target sequences were amplified at 56° C. using the same amount of cDNA for all primer sets. The RT-PCR products were all of expected size, and their identity was confirmed by direct sequencing. Negative controls were performed by omitting the RT step or cDNA template from the PCR amplification. The cycle number was adjusted between 22 (for the housekeeping ARP gene) and 36 cycles (for iNOS) in order to yield visible products within the linear amplification range. […]

NF-κB and AP-1 = conditions: various cell types and tissues; cited from earlier work
IκBα and IκBβ = test: Western blot of IκBα and IκBβ in cytosolic extracts from pancreatic tissue; type: in vivo, rat
Experimental: IκBα and IκBβ levels were measured in cytosolic protein extracts from pancreatic tissue, prepared according to Example 12, by Western blot analysis using polyclonal antibodies sc-371 and sc-945, respectively (Santa Cruz Biotechnology, Santa Cruz, Calif.) using methods known in the art. […] Specifically, IκBα and IκBβ levels were measured in cytosolic protein extracts from pancreatic tissue by Western blot analysis using polyclonal antibodies sc-371 and sc-945, respectively (Santa Cruz Biotechnology, Santa Cruz, Calif.). […] Specifically, proteins in the cytosolic extract were separated by SDS-PAGE at 120 V using precast Tris-glycine gels and Mini-Cell gel apparatus (Novex, San Diego, Calif.). Separated proteins were electrophoretically transferred to polyvinylidene difluoride membrane for 2 hours at 30 V, using a Novex blot module. Nonspecific binding was blocked by overnight incubation of the membrane in 5% (wt/vol) nonfat dry milk in Tris-buffered saline (TBS, pH 7.5). Blots were then incubated for 2 hours at room temperature with primary antibodies in antibody buffer containing 1% (wt/vol) nonfat dry milk in TTBS (0.05% vol/vol Tween 20 in TBS), washed three times with TTBS, and finally incubated for 1 hour with a peroxidase-labeled secondary antibody in the antibody buffer. Blots were developed for visualization using enhanced chemiluminescence detection kit (Pierce Chemical, Rockford, Ill.).

[5] = Solubility of curcumin compounds; type: physicochemical; conditions: dissolved in DMSO, veins of the rat
NF-κB = test: Curcumin and N-acetylcysteine alone and in combination, NF-κB activation in CCK-stimulated acinar cells; type: cell-based, rat; conditions: curcumin 50 μM alone, 0.1 μM CCK
Experimental: To measure the effects of curcumin compounds and ROS inhibitors, EMSAs and nuclear protein extractions were conducted as provided above. […] EMSAs for NF-κB activation were performed on nuclear proteins extracted from each sample.

[6] = system: rats with cerulein pancreatitis or ethanol/CCK pancreatitis; test: Serum amylase and lipase in cerulein and ethanol/CCK pancreatitis models; type: in vivo; conditions: rat; for inhibition of the increase in serum amylase and lipase: curcumin 35 mg/kg/h i.v. for 6 h
Experimental: 5 μg/kg/h of Cerulein (American Peptide Co., Sunnyvale, Calif.) or vehicle control was administered to male Sprague-Dawley rats (275-350 g; Harlan, Madison, Wis.) by continuous 6-hour intravenous infusion by conventional methods known in the art. See Gukovskaya A S, et al. (1997) J. Clin. Invest. 100:1853-1862; Gukovsky I, et al. (1998) Am. J. Physiol. 275:[…]-[…]; and Zaninovic V, et al. (2000) Am. J. Physiol. 279:[…]-[…], which are herein incorporated by reference. Animals were euthanized by CO2-induced asphyxiation, and blood and the pancreas were harvested for measurements. Curcumin (Sigma Chemical, St. Louis, Mo.) was dissolved in dimethyl sulfoxide (DMSO) and administered to each animal by i.v. infusion together with cerulein at a dose of 35 mg/kg/h. Thus, during the 6-hour treatment, each animal received a total of 200 mg/kg (0.5 mmol/kg) of curcumin. Serum amylase and lipase were measured under contract using a Hitachi 707 analyzer (Antech Diagnostics, Irvine Calif.) and methods known in the art. […] Thus, curcumin inhibits […] pancreatitis. An ethanol/CCK-induced pancreatitis model as previously described was used. See Pandol S J, et al. (1999). Specifically, Sprague-Dawley rats (400-500 g; Harlan, Madison, Wis.) were given an intragastric infusion of ethanol-containing or control diet for 6 weeks followed by 6-hour infusion of a low dose (3000 pmol/kg/h) CCK-8 (Peninsula Laboratories, Belmont, Calif.). […] CCK-8 causes pancreatitis in both rats and mice by stimulating the activation of the inflammatory signals, i.e. NF-κB and AP-1, in the pancreatic acinar cell. Animals were euthanized by CO2-induced asphyxiation, and blood and the pancreas were harvested for measurements. Curcumin (Sigma Chemical, St. Louis, Mo.) was dissolved in dimethyl sulfoxide (DMSO) and administered to each animal by i.v. infusion together with CCK-8 at a dose of 35 mg/kg/h. Thus, during the 6-hour treatment, each animal received a total of 200 mg/kg (c. 0.5 mmol/kg) of curcumin. Serum amylase and lipase were measured under contract using a Hitachi 707 analyzer (Antech Diagnostics, Irvine Calif.) and methods known in the art. […] Thus, curcumin inhibits […] pancreatitis.

COc1cc(/C=C/C(=O)CC(=O)/C=C/c2ccc(O)c(OC)c2)ccc1O [curcumin]
inhibition of neutrophil infiltration in the pancreas ([1]; cerulein pancreatitis): greater than 50%
neutrophil infiltration versus pancreatitis without curcumin ([1]; cerulein pancreatitis): significantly lower; also recorded: significantly inhibited
inhibition of neutrophil infiltration in the pancreas ([1]; ethanol/CCK pancreatitis): greater than 50%
neutrophil infiltration versus pancreatitis without curcumin ([1]; ethanol/CCK pancreatitis): significantly lower; also recorded: significantly inhibited
CCK-induced activation of AP-1 in isolated acinar cells (AP-1 [2]; 1 h with compound, then 0.1 μM CCK 30 min): inhibits; also recorded: abolished; also recorded: blocked; also recorded: attenuates
basal AP-1 binding activity in acinar cells (AP-1 [2]; isolated acinar cells without CCK): inhibited
AP-1 activation in the pancreas (AP-1 [3]; cerulein pancreatitis): markedly attenuated; also recorded: inhibited
AP-1 activation in the pancreas (AP-1 [3]; ethanol/CCK pancreatitis): almost completely blocked; also recorded: inhibited
effect on p38 MAP kinase (p38 MAP kinase): no effect
pancreatic expression of IL-6, TNF-α, KC and iNOS ([4]; cerulein pancreatitis): markedly inhibited; also recorded: attenuated
pancreatic expression of IL-6, TNF-α, KC and iNOS ([4]; ethanol/CCK pancreatitis): markedly inhibited; also recorded: attenuated
activation of NF-κB and AP-1 (NF-κB and AP-1): inhibits
decrease (degradation) of IκBα and IκBβ (IκBα and IκBβ; cerulein pancreatitis, rat): prevented
IκBα and IκBβ levels in control animals (IκBα and IκBβ; control animals): did not change
IκB degradation (IκBα and IκBβ; ethanol/CCK pancreatitis, rat): prevented; also recorded: inhibits
behaviour of DMSO solution diluted in saline on intravenous infusion [5]: precipitated
inhibition of NF-κB activation in CCK-stimulated acinar cells (NF-κB): very little inhibition
inhibition of the increase in serum amylase and lipase ([6]; cerulein pancreatitis): approximately 50%
serum amylase versus pancreatitis without curcumin ([6]; cerulein pancreatitis, p<0.05): significantly inhibited; also recorded: significantly lower
serum lipase versus pancreatitis without curcumin ([6]; cerulein pancreatitis, p<0.05): significantly inhibited; also recorded: significantly lower
inhibition of the increase in serum amylase and lipase ([6]; ethanol/CCK pancreatitis): approximately 50%
serum amylase and lipase versus pancreatitis without curcumin ([6]; ethanol/CCK pancreatitis, p<0.05): significantly inhibited; also recorded: significantly lower
